Laboratory results as given in US12459912B2 (priority 2020, dated 2025).
“Also recorded” adds a separate entry of the source.

How the values were obtained:
human SERT = molecular target: T1, human SERT (Homo sapiens, UniProt P31645); assay: hSERT [^3H]serotonin release assay (CHO cells); assay type: cell-based; conditions: for [^3H]-labeled serotonin release (figure legend): percent of max release compared to a control, as function of concentration
T1 construct: expressed in transfected cells

Swiss CD 1 mice = assay: Marble burying test; assay type: in vivo; conditions: racemic compounds, intraperitoneally 30 minutes before a 30-min session
[1] = molecular target: 5-Hydroxytryptamine (Serotonin) Receptor 1B (5-HT1B) (Homo sapiens, UniProt P28222); assay: 5-HT1B/cAMP; assay type: cell-based; conditions: EC50 at 5-HT1B, agonist
human DAT = molecular target: T2, human DAT (Homo sapiens, UniProt Q01959); assay: hDAT [^3H]dopamine release assay (CHO cells); assay type: cell-based; conditions: for DAT/SERT ratio: (DAT EC50)^−1/(SERT EC50)^−1, larger numbers indicate higher DAT selectivity; for [^3H]-labeled dopamine release (figure legend): percent of max release compared to a control, as function of concentration
T2 construct: expressed in transfected cells

[2] = molecular target: T3, human 5-HT transporter (hSERT) (Homo sapiens, UniProt P31645); assay: Human serotonin transporter antagonist radioligand assay ([^3H]imipramine, CHO cells); assay type: binding
T3 construct: expressed in transfected cells; host or cells: CHO cells
Description: We therefore separately measured interactions with these transporters using two additional types of assays: an antagonist radioligand assay of inhibition of the human 5-HT transporter (hSERT) expressed in CHO cells (Tatsumi, M. et al. (1999), Eur. J. Pharmacol., 368: 277-283) and an assay measuring release of [^3H] […] While the former is sensitive to classic reuptake inhibition, the latter can detect the effects of substrates, which also induce release.
Benzothiophene derivatives were evaluated for inhibiting the human 5-HT transporter (hSERT) as expressed in CHO cells using an antagonist radioligand assay (Tatsumi, M. et al. (1999), Eur. J. Pharmacol., 368: 277-283). […] Test compounds were assayed in three trials at […], and 0.94868 μM.
When compounds are substrates for monoamine transporters instead of solely inhibitors, it is known that IC50 values underestimate their potency for interacting with these transporters (Ilic, M. et al. (2020), Frontiers in Pharmacology 11: 673).

MAO-A = MAO-A (Rattus norvegicus, UniProt P21396); conditions: read-out: IC50 MAO-A; Vallejos et al. 2005; cited from earlier work
[3] = Poos 1967; cited from earlier work
[4] = molecular target: T4, GABAA (Gamma-aminobutyric acid Receptor A); assay type: cell-based; conditions: reference compound, Blocker mode; read-out: RC50 (μM), Result Type IC50
T4 construct: other: opener

neuritogenesis = conditions: Ly et al. 2018, cited from earlier work
5-HT1B = 5-HT1B (Homo sapiens, UniProt P28222); conditions: Ray 2010; cited from earlier work
[5] = molecular target: T5, nAChR(a4/b2) (Nicotinic acetylcholine Receptor α4 β2) (Homo sapiens, UniProt P17787+P43681); assay: cell-based; conditions: reference compound, Blocker mode; read-out: RC50 (μM), Result Type IC50
T5 construct: expressed in transfected cells
T5 sequence (P43681 29-627 limits assumed): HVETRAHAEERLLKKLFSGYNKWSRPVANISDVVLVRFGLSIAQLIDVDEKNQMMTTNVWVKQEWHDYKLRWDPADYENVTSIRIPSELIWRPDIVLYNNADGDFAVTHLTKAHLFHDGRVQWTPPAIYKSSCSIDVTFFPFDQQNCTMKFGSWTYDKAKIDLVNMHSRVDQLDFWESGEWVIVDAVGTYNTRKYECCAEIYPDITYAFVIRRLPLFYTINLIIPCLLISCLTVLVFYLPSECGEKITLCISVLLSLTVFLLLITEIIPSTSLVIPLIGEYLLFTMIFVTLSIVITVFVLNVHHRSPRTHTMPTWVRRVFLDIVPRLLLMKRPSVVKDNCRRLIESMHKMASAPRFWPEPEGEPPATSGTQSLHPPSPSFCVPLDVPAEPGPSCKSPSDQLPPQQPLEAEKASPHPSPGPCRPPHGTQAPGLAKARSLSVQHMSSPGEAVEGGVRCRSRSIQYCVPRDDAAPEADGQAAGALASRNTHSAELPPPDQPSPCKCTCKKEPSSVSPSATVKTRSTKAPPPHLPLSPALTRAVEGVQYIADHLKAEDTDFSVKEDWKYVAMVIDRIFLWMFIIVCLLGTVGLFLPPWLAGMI
T5 sequence (P17787 26-502): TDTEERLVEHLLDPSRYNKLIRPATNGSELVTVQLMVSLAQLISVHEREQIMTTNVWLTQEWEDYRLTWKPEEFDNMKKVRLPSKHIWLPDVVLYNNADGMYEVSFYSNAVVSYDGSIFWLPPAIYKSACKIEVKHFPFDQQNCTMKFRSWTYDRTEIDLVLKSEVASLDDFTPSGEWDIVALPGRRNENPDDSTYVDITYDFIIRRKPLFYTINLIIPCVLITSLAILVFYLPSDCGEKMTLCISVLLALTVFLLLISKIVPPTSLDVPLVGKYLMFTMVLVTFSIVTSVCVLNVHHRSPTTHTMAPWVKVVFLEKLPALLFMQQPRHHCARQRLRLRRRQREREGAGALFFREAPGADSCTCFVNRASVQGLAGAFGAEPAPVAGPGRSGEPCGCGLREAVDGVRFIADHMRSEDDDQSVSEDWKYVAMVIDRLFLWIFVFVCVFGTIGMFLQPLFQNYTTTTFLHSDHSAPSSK

T2 sequence (Q01959 whole entry): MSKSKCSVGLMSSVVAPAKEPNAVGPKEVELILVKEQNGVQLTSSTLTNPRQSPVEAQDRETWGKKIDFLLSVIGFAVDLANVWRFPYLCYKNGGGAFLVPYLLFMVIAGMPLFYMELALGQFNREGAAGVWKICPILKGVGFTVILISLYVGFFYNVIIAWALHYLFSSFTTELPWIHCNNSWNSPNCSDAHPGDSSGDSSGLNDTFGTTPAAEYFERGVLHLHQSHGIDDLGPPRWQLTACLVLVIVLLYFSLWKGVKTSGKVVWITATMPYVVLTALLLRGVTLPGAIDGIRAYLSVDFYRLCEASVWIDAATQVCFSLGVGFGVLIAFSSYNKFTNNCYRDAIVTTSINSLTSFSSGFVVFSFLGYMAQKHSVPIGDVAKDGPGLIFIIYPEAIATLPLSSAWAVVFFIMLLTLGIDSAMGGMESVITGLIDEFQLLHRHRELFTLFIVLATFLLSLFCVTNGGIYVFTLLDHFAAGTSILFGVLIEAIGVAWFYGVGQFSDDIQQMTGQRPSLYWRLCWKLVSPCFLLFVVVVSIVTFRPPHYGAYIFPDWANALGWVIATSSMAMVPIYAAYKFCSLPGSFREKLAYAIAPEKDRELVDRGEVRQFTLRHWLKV
5-Hydroxytryptamine (Serotonin) Receptor 1B (5-HT1B), sequence (P28222 whole entry): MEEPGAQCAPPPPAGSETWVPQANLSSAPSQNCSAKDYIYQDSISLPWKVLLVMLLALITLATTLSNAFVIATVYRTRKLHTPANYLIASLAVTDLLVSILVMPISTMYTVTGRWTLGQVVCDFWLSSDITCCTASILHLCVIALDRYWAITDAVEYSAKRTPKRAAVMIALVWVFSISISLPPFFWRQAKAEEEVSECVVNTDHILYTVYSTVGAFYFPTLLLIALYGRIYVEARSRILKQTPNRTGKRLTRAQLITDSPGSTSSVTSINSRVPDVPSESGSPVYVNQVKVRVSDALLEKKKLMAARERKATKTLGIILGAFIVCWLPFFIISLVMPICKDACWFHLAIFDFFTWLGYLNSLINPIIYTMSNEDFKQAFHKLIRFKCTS
T1 sequence (P31645 whole entry): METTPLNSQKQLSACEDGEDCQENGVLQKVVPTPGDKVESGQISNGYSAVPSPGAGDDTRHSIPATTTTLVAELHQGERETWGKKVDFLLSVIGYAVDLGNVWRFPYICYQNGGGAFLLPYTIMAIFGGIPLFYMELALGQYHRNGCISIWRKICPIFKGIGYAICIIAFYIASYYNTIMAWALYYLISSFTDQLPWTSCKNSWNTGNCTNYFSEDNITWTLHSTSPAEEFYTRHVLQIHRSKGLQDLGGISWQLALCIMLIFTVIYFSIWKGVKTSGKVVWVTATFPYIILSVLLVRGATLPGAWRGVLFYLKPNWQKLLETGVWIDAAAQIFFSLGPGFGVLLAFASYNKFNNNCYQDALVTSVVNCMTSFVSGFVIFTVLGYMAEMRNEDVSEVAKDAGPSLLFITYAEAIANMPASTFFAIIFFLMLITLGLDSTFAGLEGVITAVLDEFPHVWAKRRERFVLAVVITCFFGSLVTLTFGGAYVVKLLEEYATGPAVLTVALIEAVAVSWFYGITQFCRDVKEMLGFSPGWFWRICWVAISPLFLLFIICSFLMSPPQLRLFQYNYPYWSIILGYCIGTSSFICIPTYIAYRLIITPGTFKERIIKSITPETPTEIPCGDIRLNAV
T3 sequence (P31645 whole entry): as above
5-HT1B, sequence (P28222 whole entry, species assumed): as the sequence (P28222 whole entry) above
MAO-A, sequence (P21396 whole entry): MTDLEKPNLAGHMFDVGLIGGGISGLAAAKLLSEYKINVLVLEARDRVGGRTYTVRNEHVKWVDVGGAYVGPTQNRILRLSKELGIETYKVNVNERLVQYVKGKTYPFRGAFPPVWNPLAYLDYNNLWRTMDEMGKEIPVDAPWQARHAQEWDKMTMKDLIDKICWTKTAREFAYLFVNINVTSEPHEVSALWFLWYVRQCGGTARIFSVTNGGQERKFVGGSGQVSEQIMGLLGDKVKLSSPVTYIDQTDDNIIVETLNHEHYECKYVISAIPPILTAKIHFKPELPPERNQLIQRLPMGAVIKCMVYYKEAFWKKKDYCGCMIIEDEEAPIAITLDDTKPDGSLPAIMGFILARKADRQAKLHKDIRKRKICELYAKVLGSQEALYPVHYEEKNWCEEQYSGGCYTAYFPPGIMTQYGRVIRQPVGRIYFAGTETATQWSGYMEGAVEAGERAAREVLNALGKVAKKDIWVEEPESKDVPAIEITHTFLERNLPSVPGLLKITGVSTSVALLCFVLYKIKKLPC

| Compound | EC50 (human SERT) | [^3H]-labeled serotonin release (figure legend) (human SERT) | anxiolytic effect (marbles left unburied versus placebo) (Swiss CD 1 mice) | EC50 (human DAT) | DAT/SERT ratio (human DAT) | [^3H]-labeled dopamine release (figure legend) (human DAT) | IC50 [2] | Ki [2] | further results |
| --- | --- | --- | --- | --- | --- | --- | --- | --- | --- |
| CNC(C)C(=O)c1ccc2sccc2c1.Cl (stereo not shown) [Bk-5-MAPBT, 1-(benzo[b]thiophen-5-yl)-2-(methylamino) propan-1-one hydrochloride] | 0.101 µM | rapidly induces extracellular dopamine and serotonin release | dose-dependent anxiolytic effects | 0.194 µM | 0.52 | rapidly induces extracellular dopamine and serotonin release |  |  | EC50 [1]: 0.059 µM |
| CNC(C)Cc1ccc2sccc2c1 (stereo not shown) |  |  |  |  |  |  | 0.25 µM | 0.12 µM |  |
| CNC(C)Cc1ccc2ccsc2c1 (stereo not shown) [drawing 525] |  |  |  |  |  |  | 1.5 µM | 0.68 µM |  |
| CC(N)Cc1csc2ccccc12 (stereo not shown) [Compound 3-APBT, 1-(1-benzothiophen-3-yl)propan-2-amine] |  |  |  |  |  |  |  |  | IC50 (MAO-A): 16.2 ± 0.4 µM; effect on appetite [3]: acted to reduce appetite |
| Picrotoxin [reference compound] |  |  |  |  |  |  |  |  | IC50 [4]: 2.78 µM |
| CNC(C)C(=O)c1ccc2sccc2c1 (stereo not shown) |  |  |  |  |  |  | 2 µM | 0.9 µM |  |
| CNC(C)Cc1ccc2c(c1)OCO2 (stereo not shown) [MDMA] |  |  |  |  |  |  |  |  | Emax for promoting neuritogenesis relative to ketamine (neuritogenesis): approximately twice that of ketamine; EC50 (neuritogenesis; read-out: EC50 for promoting neuritogenesis): 0.00741 µM; binding to 5-HT1B (5-HT1B): does not bind directly |
| CCNC(C)Cc1ccc2sccc2c1.Cl (stereo not shown) [Compound 5-EAPBT, 1-(benzothiophen-5-yl)-N-ethylpropan-2-amine hydrochloride] | 0.053 µM | rapidly induces extracellular dopamine and serotonin release | dose-dependent anxiolytic effects | 0.098 µM | 0.54 | rapidly induces extracellular dopamine and serotonin release |  |  | dopamine release Emax in comparison to the reference releaser amphetamine (human DAT; high concentrations, 100 μM amphetamine as reference, hydrochloride): partial DAT substrate; also recorded: Emax below that of the reference releaser |
| CNC(C)Cc1ccc2sccc2c1.Cl (stereo not shown) [Compound 5-MAPBT, 1-(benzothiophen-5-yl)-N-methylpropan-2-amine hydrochloride] | 0.023 µM | rapidly induces extracellular dopamine and serotonin release | dose-dependent anxiolytic effects | 0.129 µM | 0.18 | rapidly induces extracellular dopamine and serotonin release |  |  | EC50 [1]: 0.038 µM |
| CCNC(C)Cc1ccc2sccc2c1 (stereo not shown) |  |  |  |  |  |  | 0.1 µM | 0.05 µM |  |
| Dihydro-AY-erythroidine [reference compound] |  |  |  |  |  |  |  |  | IC50 [5]: 0.682 µM |
| CNC(C)Cc1ccc2ccsc2c1.Cl (stereo not shown) [Compound 6-MAPBT, 1-(benzothiophen-6-yl)-N-methylpropan-2-amine hydrochloride] | 0.057 µM | rapidly induces extracellular dopamine and serotonin release | dose-dependent anxiolytic effects | 0.071 µM | 0.80 | rapidly induces extracellular dopamine and serotonin release |  |  | EC50 [1]: 0.024 µM |
